What follows are compounds tested on C666-1 cells (assay: C666-1 cell viability single concentration (50 μM) inhibition rate (Resazurin)). Details: Homo sapiens, C6661, 72 h, 50 μM compound, 72 hours, C666-1 cells; read-out: C666-1 cell viability single concentration (50 μM) inhibition rate, Ratio* (Inh %).
Format: cell-based
Procedure, shortened: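 EBV-positive C666-1 cells (5×10^3/well), pre-cultured 24 h, were exposed to compound at 50 μmol/L final for 72 h at 37° C, 5% CO2, in duplicate. Viability by resazurin (3 h, ex 560/em 590 nm); inhibition rate computed relative to DMSO control and medium-only blank.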
In the case of `COC(=O)c1cccc(N2CC(Oc3ccc(COC(C)=O)cc3)C2)c1-n1cccc1` [Compound 74, Methyl 3-(3-(4-(acetoxylmethyl)phenoxy)azetidin-1-yl)-2-(1H-pyrrol-1-yl)benzoate], the inhibition at 50 µM is reported as < 10%.
`COC(=O)c1cccc(N2CC(Oc3ccc(NC(=S)Nc4ccc(C(F)(F)F)cc4)cc3)C2)c1-n1cccc1` [Example 118, Methyl 2-(1H-pyrrol-1-yl)-3-(3-(4-(3-(4-(trifluoromethyl)phenyl)thioureido)phenoxy)azetidin-1-yl)benzoate] was tested, and the inhibition at 50 µM was > 50%.
For `O=C(NC1CN(c2cccc(C(=O)O)c2-n2cccc2)C1)c1ccccc1[N+](=O)[O-]` [Example 181, 3-(3-(2-nitrobenzamido)azetidin-1-yl)-2-(1H-pyrrol-1-yl)benzoic acid], the inhibition at 50 µM was < 10%.
Compound `COC(=O)c1cccc(N2CC3(CN(c4cccc(NC(C)=O)c4)C3)C2)c1N` [Compound 29, Methyl 3-(6-(3-acetylaminophenyl)-2,6-diazaspiro[3.3]heptan-2-yl)-2-aminobenzoate] has an inhibition at 50 µM of 10 to 30%.
With `COC(=O)c1cccc(N2CC(Oc3ccc4c(ccn4S(=O)(=O)c4ccc(C)cc4)c3)C2)c1-n1cccc1` [Example 304, Methyl 3-(3-((1-p-tolylsulfonyl-1H-indol-5-yl)oxy)azetidin-1-yl)-2-(1H-pyrrol-1-yl)benzoate] the inhibition at 50 µM was < 10%.
With `COC(=O)c1ccc(N2CC3(C2)CN(c2cccc(C(=O)OC)c2-n2cccc2)C3)cc1` [Compound 23, Methyl 3-(6-(4-(methoxycarbonyl)phenyl)-2,6-diazaspiro[3.3]heptan-2-yl)-2-(1H-pyrrol-1-yl)benzoate] the inhibition at 50 µM was < 10%.
`Cc1ccc(S(=O)(=O)N(C)C#Cc2cccc(C(=O)O)c2-n2cccc2)cc1` [Example 384] was tested, and the inhibition at 50 µM was < 10%.
For `Nc1ccc(OC2CN(c3cccc(C(=O)O)c3-n3cccc3)C2)cc1` [Example 254, 3-(3-(4-aminophenoxy)azetidin-1-yl)-2-(1H-pyrrol-1-yl)benzoic acid], the inhibition at 50 µM was < 10%.
With `CCNC(=S)OCc1ccc(OC2CN(c3cccc(C(=O)O)c3-n3cccc3)C2)cc1` [Example 239] the inhibition at 50 µM was < 10%.
`COC(=O)c1cccc(N2CC3(CN(c4cccc(NS(C)(=O)=O)c4)C3)C2)c1[N+](=O)[O-]` [Compound 27, Methyl 3-(6-(3-(methylsulfonamido)phenyl)-2,6-diazaspiro[3.3]heptan-2-yl)-2-nitrobenzoate] was tested, and the inhibition at 50 µM was < 10%.
`COC(=O)c1cccc(N2CC(Oc3ccc(CO)cc3)C2)c1-c1cccc(C(=O)O)c1` [Example 279] was tested, and the inhibition at 50 µM was 10 to 30%.
`COC(=O)c1cccc(N2CC(Oc3ccc(CO)cc3)C2)c1-n1cccc1` [Compound 37, Methyl 3-(3-(4-(hydroxymethyl)phenoxy)azetidin-1-yl)-2-(1H-pyrrol-1-yl)benzoate] gave an inhibition at 50 µM of 30 to 50%.
`COC(=O)c1cccc(C#CN(Cc2cccs2)S(=O)(=O)c2ccc(C)cc2)c1-n1cccc1` [Example 328, Methyl 3-(((4-methyl-N-(thiophen-2-yl-methyl)phenyl)sulfonamido)ethynyl)-2-(1H-pyrrol-1-yl)benzoate] gave an inhibition at 50 µM of 10 to 30%.
For `O=C(O)c1cccc(N2CC(Oc3ccc(CO)cc3)C2)c1-c1cc(F)cc(F)c1` [Compound 62, 3′,5′-difluoro-6-(3-(4-(hydroxymethyl)phenoxy)azetidin-1-yl)-[1,1′-biphenyl]-2-formic acid], the inhibition at 50 µM was < 10%.
With `O=C(Nc1ccc(Cl)cc1)Nc1ccc(OC2CN(c3cccc(C(=O)O)c3-n3cccc3)C2)cc1` [Example 129, 3-(3-(4-(3-(4-chlorophenyl)ureido)phenoxy)azetidin-1-yl)-2-(1H-pyrrol-1-yl)benzoic acid] the inhibition at 50 µM was < 10%.
In the case of `COC(=O)c1cccc(C#CN(Cc2ccco2)S(=O)(=O)c2ccc(C)cc2)c1-n1cccc1` [Example 314, Methyl 3-(((N-(furan-2-yl-methyl)-4-methylphenyl)sulfonamido)ethynyl)-2-(1H-pyrrol-1-yl)benzoate], the inhibition at 50 µM is reported as < 10%.
`COC(=O)c1cccc(N2CC(Oc3ccc(CO)cc3)C2)c1-n1cccn1` [Compound 69, Methyl 3-(3-(4-(hydroxymethyl)phenoxy)azetidin-1-yl)-2-(1H-pyrazol-1-yl)benzoate] gave an inhibition at 50 µM of 10 to 30%.
`COC(=O)c1cccc(N2CC(Oc3ccc(Oc4ccc(F)cc4)cc3)C2)c1-n1cccc1` [Example 202, Methyl 3-(3-(4-(4-fluorophenoxy)phenoxy)azetidin-1-yl)-2-(1H-pyrrol-1-yl)benzoate] was tested, and the inhibition at 50 µM was < 10%.
For `N#Cc1cccc(-c2c(C(=O)O)cccc2N2CC(Oc3ccc(CO)cc3)C2)c1` [Example 278], the inhibition at 50 µM was 10 to 30%.
`COC(=O)c1cccc(N2CC(Oc3ccc(C(=O)N4CCOCC4)cc3)C2)c1-n1cccc1` [Example 265, Methyl 3-(3-(4-(morpholinyl-4-carbonyl)phenoxy)azetidin-1-yl)-2-(1H-pyrrol-1-yl)benzoate] showed an inhibition at 50 µM of 10 to 30%.
In the case of `CC(O)c1ccc(OC2CN(c3cccc(C(=O)O)c3-n3cccc3)C2)cc1` (centres unmarked) [Compound 90, 3-(3-(4-(1-hydroxyethyl)phenoxy)azetidin-1-yl)-2-(1H-pyrrol-1-yl)benzoic acid], the inhibition at 50 µM is reported as < 10%.
For `COC(=O)c1cccc(N2CC(Oc3ccc(C(C)=O)cc3)C2)c1-n1cccc1` [Compound 87, Methyl 3-(3-(4-acetylphenoxy)azetidin-1-yl)-2-(1H-pyrrol-1-yl)benzoate], the inhibition at 50 µM was > 50%.
In the case of `O=C(Nc1ccc(OC2CN(c3cccc(C(=O)O)c3-n3cccc3)C2)cc1)Nc1ccccc1Cl` [Example 136, 3-(3-(4-(3-(2-chlorophenyl)ureido)phenoxy)azetidin-1-yl)-2-(1H-pyrrol-1-yl)benzoic acid], the inhibition at 50 µM is reported as < 10%.
`COC(=O)c1cccc(C#CN(Cc2ccccc2)S(=O)(=O)c2ccc3occc3c2)c1-n1cccc1` [Example 330, Methyl 3-((N-benzylbenzofuran-5-sulfonamido)ethynyl)-2-(1H-pyrrol-1-yl)benzoate] was tested, and the inhibition at 50 µM was > 50%.
For `COC(=O)c1cccc(N2CC(Oc3ccccc3N)C2)c1-n1cccc1` [Example 255, Methyl 3-(3-(2-aminophenoxy)azetidin-1-yl)-2-(1H-pyrrol-1-yl)benzoate], the inhibition at 50 µM was > 50%.
For `COC(=O)c1cccc(N2CC(Oc3ccc(NC(C)=O)cc3)C2)c1-n1cccc1` [Example 120, Methyl 3-(3-(4-acetylaminophenoxy)azetidin-1-yl)-2-(1H-pyrrol-1-yl)benzoate], the inhibition at 50 µM was 10 to 30%.
Compound `COC(=O)c1cccc(-c2cn(-c3ccc(CO)cc3)nn2)c1-c1ccc2cc[nH]c2c1` [Example 269, Methyl 3-(1-(4-(hydroxymethyl)phenyl)-1H-1,2,3-triazol-4-yl)-2-(1H-indol-6-yl)benzoate] has an inhibition at 50 µM of 30 to 50%.
`Nc1ccccc1N1CC2(C1)CN(c1cccc(C(=O)O)c1N)C2` [Compound 12, 2-amino-3-(6-(2-aminophenyl)-2,6-diazaspiro[3.3]heptan-2-yl)benzoic acid] was tested, and the inhibition at 50 µM was < 10%.
With `CCCCCCNC(=O)Nc1ccc(OC2CN(c3cccc(C(=O)OC)c3-n3cccc3)C2)cc1` [Example 132, Methyl 3-(3-(4-(3-hexylureido)phenoxy)azetidin-1-yl)-2-(1H-pyrrol-1-yl)benzoate] the inhibition at 50 µM was < 10%.
With `COC(=O)c1cccc(N2CC(Oc3ccc(C(=O)C(C)C)cc3)C2)c1-n1cccc1` [Example 216, Methyl 3-(3-(4-isobutyrylphenoxy)azetidin-1-yl)-2-(1H-pyrrol-1-yl)benzoate] the inhibition at 50 µM was < 10%.
With `O=C(O)c1cccc(N2CC(Oc3ccc(CNc4ccccc4)cc3)C2)c1-n1cccc1` [Example 363] the inhibition at 50 µM was < 10%.
In the case of `COC(=O)c1cccc(N2CC(Oc3ccc(OC4CCCCO4)cc3)C2)c1-n1cccc1` (centres unmarked) [Example 308, Methyl 3-(3-(4-((tetrahydro-2H-pyran-2-yl)oxy)phenoxy)azetidin-1-yl)-2-(1H-pyrrol-1-yl)benzoate], the inhibition at 50 µM is reported as < 10%.
For `O=C(O)c1cccc(C2CC2c2ccccc2)c1-n1cccc1` (centres unmarked) [Example 393, 3-(2-phenylcyclopropyl)-2-(1H-pyrrol-1-yl)benzoic acid], the inhibition at 50 µM was < 10%.
In the case of `COC(=O)c1cccc(N2CC(Oc3ccc(CO)cc3)C2)c1-c1ccco1` [Compound 47], the inhibition at 50 µM is reported as 30 to 50%.
In the case of `O=C(NC1CC1)NC1CN(c2cccc(C(=O)O)c2-n2cccc2)C1` [Example 169, 3-(3-(3-cyclopropylureido)azetidin-1-yl)-2-(1H-pyrrol-1-yl)benzoic acid], the inhibition at 50 µM is reported as < 10%.
In the case of `COC(=O)c1cccc(N2CC(Oc3ccc(NC(=O)Nc4ccc(Cl)cc4)cc3)C2)c1-n1cccc1` [Example 128, Methyl 3-(3-(4-(3-(4-chlorophenyl)ureido)phenoxy)azetidin-1-yl)-2-(1H-pyrrol-1-yl)benzoate], the inhibition at 50 µM is reported as < 10%.
`COC(=O)c1cccc(N2CC(Oc3ccc4cc[nH]c4c3)C2)c1-n1cccc1` [Example 103, Methyl 3-(3-((1H-indol-6-yl)oxy)azetidin-1-yl)-2-(1H-pyrrol-1-yl)benzoate] showed an inhibition at 50 µM of 10 to 30%.
In the case of `COC(=O)c1cccc(N2CC(Oc3ccc(OCCN)c(OC)c3)C2)c1-n1cccc1` [Example 311, Methyl 3-(3-(4-(2-aminoethoxy)-3-methoxyphenoxy)azetidin-1-yl)-2-(1H-pyrrol-1-yl)benzoate], the inhibition at 50 µM is reported as 10 to 30%.
With `O=C(NC1CCCCC1)OC1CN(c2cccc(C(=O)O)c2-n2cccc2)C1` [Example 150, 3-(3-((cyclohexylcarbamoyl)oxy)azetidin-1-yl)-2-(1H-pyrrol-1-yl)benzoic acid] the inhibition at 50 µM was < 10%.

Same assay, conditions: Homo sapiens, C6661, 72 h, read-out: C666-1 cell viability single concentration (50 μM) inhibition rate, Ratio* (Inh %)
`Cc1ccc(S(=O)(=O)N(C#Cc2cccc(C(=O)O)c2-n2cccc2)Cc2ccco2)cc1` [Example 315, Lithium 3-(((N-(furan-2-yl-methyl)-4-methylphenyl)sulfonamido)ethynyl)-2-(1H-pyrrol-1-yl)benzoate] was tested, and the inhibition at 50 µM was > 50%.
`O=C(O)c1cccc(C#CN(Cc2ccc(C(F)(F)F)cc2)S(=O)(=O)c2cccs2)c1-n1cccc1` [Example 337, Lithium 3-((N-(4-(trifluoromethyl)benzyl)thiophen-2-sulfonamido)ethynyl)-2-(1H-pyrrol-1-yl)benzoate] showed an inhibition at 50 µM of 10 to 30%.

From US20230157996A1, “SMALL-MOLECULE INHIBITOR TARGETING EB VIRUS NUCLEAR ANTIGEN PROTEIN, PREPARATION METHOD AND USE THEREOF” (priority 2020, published 2023)
